Here are results for 37 compounds from patent publication US20190045783A1, “SUBSTITUTED IMIDAZOLYLCARBOXAMIDES AS PESTICIDES” (BAYER CROPSCIENCE AKTIENGESELLSCHAFT, priority 2016, published 2019).

In data set [1] the test system is green peach aphids (Myzus persicae). Briefly: Myzus persicae oral test. It counts as in vivo. The note with it: application rate 20 ppm, after 5 days, oral; 100% = all aphids killed. As for the experimental part:
Solvent: 100 parts by weight of acetone
Subsequently, the plates are sealed with parafilm, which a mixed population of green peach aphids (Myzus persicae) within a second microtitre plate is able to puncture and imbibe the solution through it.
After 5 days, the efficacy in % is determined. 100% means that all the aphids have been killed; 0% means that no aphids have been killed.

Data set [2] has as its system green peach aphid (Myzus persicae). Briefly: Myzus persicae spray test (Chinese cabbage leaf discs). The note with it: application rate 500 g/ha, after 5-6 days, Chinese cabbage leaf discs, 100% = all aphids killed. Format: in vivo. As for the experimental part: Myzus persicae—Spray Test
To produce a suitable active ingredient formulation, 1 part by weight of active ingredient is dissolved with the stated parts by weight of solvent and made up with water containing an emulsifier concentration of 1000 ppm until the desired concentration is attained. To produce further test concentrations, the formulation is diluted with emulsifier-containing water.
After 5-6 days, the efficacy in % is determined. 100% means that all the aphids have been killed; 0% means that no aphids have been killed.

Data set [3] can be described thus: log P by HPLC on reversed-phase column (C18), EEC directive 79/831 Annex V.A8. It counts as physicochemical. As to conditions: for chromatographic logP: reversed-phase HPLC column (C18), preparation examples, read-out: log P[n].
Where [4] appears, read: neutral range, pH 7.8, HPLC C18, 43° C., Table 1.
Setting [5] is: neutral range, pH 7.8, HPLC C18, 43° C.

Regarding `CCCCO/N=C/c1ncc(C(=O)N(C)c2cccnc2)n1C` [I-1-027], the efficacy in % in data set [1] and in data set [2] was 100% in each case. The “logP [n]” value in data set [3] (pH 7.8) turned out to be 2.08.
Take `CCOC(=O)N/N=C/c1ncc(C(=O)N(C)c2cccnc2)n1C` [I-1-017]: the efficacy in % in data set [1] and in data set [2] was 100% throughout. The “logP [n]” value in data set [3] (pH 7.8) came out at 1.06.
Turning to `CCCO/N=C/c1ncc(C(=O)N(CC)c2cccnc2)n1C` [I-1-043], the values for the efficacy in % in data set [1] and in data set [2] were 100% and 90%, respectively. Further, in data set [3] (pH 7.8), the “logP [n]” value is 1.85.
Take `CCOC(=O)N(C)/N=C/c1ncc(C(=O)N(C)c2cccnc2)n1C` [I-1-019]: the efficacy in % is 100% in data set [1] and 90% in data set [2]. For the same compound, in data set [3] (pH 7.8), the “logP [n]” value came out at 1.33.
Taken in the same sequence, the figures for `CCN(C(=O)c1cnc(/C=N/OCC2CC2)n1C)c1cccnc1` [I-1-042] were 100%, 100% and 1.86.
Taken in the same sequence, the figures for `CN(C(=O)c1cnc(C(=O)N2CCC2)n1C)c1cccnc1` [I-1-071] were 100%, 90% and 0.89.
Consider `CC(=O)c1ncc(C(=O)N(C)c2cccnc2)n1C` [I-1-085], for which the figures for the efficacy in % in data set [1] and in data set [2] were 100% and 90%, respectively. For the same compound, the “logP [n]” value in data set [3] (setting [4]) stood at 0.87.
Taken in the same sequence, the figures for `Cc1ccc(N(C)C(=O)c2cnc(C(=O)N(C)C)n2C)cn1` [I-1-080] were 100%, 90% and 0.81.
In turn, `CNC(=O)c1ncc(C(=O)N(C)c2cccnc2)n1C` [I-1-061] had an efficacy in % in data set [1] of 100%. Moreover, the “logP [n]” value in data set [3] (pH 7.8) is reported as 0.7.
For the compound `CCOC(=O)CNC(=O)c1ncc(C(=O)N(C)c2cccnc2)n1C` [I-1-075], the results for the efficacy in % in data set [1] and in data set [2] were 100% and 90%, respectively. Besides, the “logP [n]” value in data set [3] (pH 7.8) is listed as 1.22.
Turning to `CC(C)NC(=O)c1ncc(C(=O)N(C)c2cccnc2)n1C` [I-1-032], the efficacy in % in data set [1] and in data set [2] was 100% in each case. The “logP [n]” value in data set [3] (pH 7.8) is listed as 1.26.
Turning to `CCC1COC(c2ncc(C(=O)N(C)c3cccnc3)n2C)O1` (stereo not drawn) [I-1-011], the efficacy in % in data set [1] was determined as 100%; in data set [2], 90%. The “logP [n]” value in data set [3] (pH 7.8) was found to be 1.3.
Consider `CN(C(=O)c1cnc(C(=O)N(C)S(C)(=O)=O)n1C)c1cccnc1` [I-1-081], for which the results for the efficacy in % in data set [1] and in data set [2] were 100% and 90%, respectively. Moreover, the “logP [n]” value in data set [3] (pH 7.8) turned out to be 1.11.
For `CCC(=O)c1ncc(C(=O)N(C)c2cccnc2)n1C` [I-1-086], in data set [2], the efficacy in % amounted to 90%. In addition, in data set [3] (pH 7.8), the “logP [n]” value is listed as 1.23.
For `C#CCO/N=C/c1ncc(C(=O)N(C)c2cccnc2)n1C` [I-1-035], the efficacy in % in data set [1] and in data set [2] was 100% throughout. In addition, in data set [3] (pH 7.8), the “logP [n]” value came to 1.83.
On to `CCNC(=S)c1ncc(C(=O)N(C)c2cccnc2)n1C` [I-1-057], for which the efficacy in % in data set [1] is 100%; in data set [2] it was 90%. Moreover, the “log P[a]” value in data set [3] (pH 2.7) is given as 1.21. Further, the “log P[n]” value in data set [3] (pH 7.8) is 1.42. For the same compound, the “logP [n]” value in data set [3] (pH 7.8) was determined as 1.64.
`COCC1COC(c2ncc(C(=O)N(C)c3cccnc3)n2C)O1` (stereo not drawn) [I-1-009]: the efficacy in % is 100% in data set [1] and 90% in data set [2]. Besides, in data set [3] (pH 7.8), the “logP [n]” value was 0.95.
Taken in the same sequence, the figures for `CN(C(=O)c1cnc(/C=N/OCc2ccccn2)n1C)c1cccnc1` [I-1-013] were 100%, 100% and 1.26.
Consider `CCN(C)C(=O)c1ncc(C(=O)N(c2cccnc2)C2CC2)n1C` [I-1-087], for which the “logP [n]” value in data set [3] (pH 7.8) was 1.11.
`CN(/N=C/c1ncc(C(=O)N(C)c2cccnc2)n1C)C(=O)OC(C)(C)C` [I-1-038]: the efficacy in % in data set [1] is on record as 100%; in data set [2] it was 90%. For the same compound, in data set [3] (pH 7.8), the “logP [n]” value came to 1.82.
Taken in the same sequence, the figures for `CN(C(=O)c1cnc(C(=O)NC2(C#N)CC2)n1C)c1cccnc1` [I-1-073] were 100%, 100% and 1.03.
For `CCN(CC)C(=O)c1ncc(C(=O)N(C)c2cccnc2)n1C` [I-1-058], the efficacy in % in data set [1] and in data set [2] was 100% each time. The “logP [n]” value in data set [3] (setting [4]) came to 1.11.
In the case of `CN(C(=O)c1cncn1C)c1cccnc1` [N,1-Dimethyl-N-(pyridin-3-yl)-1H-imidazole-5-carboxamide], in data set [3] (setting [5]), the chromatographic logP amounted to 0.44.
In the case of `C=CCO/N=C/c1ncc(C(=O)N(C)c2cccnc2)n1C` [I-1-012], the efficacy in % in data set [1] is on record as 100%; in data set [2], 90%. The “logP [n]” value in data set [3] (pH 7.8) was found to be 1.55.
As to `COCCOC(=O)N/N=C/c1ncc(C(=O)N(C)c2cccnc2)n1C` [I-1-049], the results for the efficacy in % in data set [1] and in data set [2] were 100% and 90%, respectively. The “logP [n]” value in data set [3] (pH 7.8) came out at 1.26.
Taken in the same sequence, the figures for `CN(C(=O)c1cnc(/C=N/OC2CCCC2)n1C)c1cccnc1` [I-1-052] were 100%, 100% and 2.14.
Taken in the same sequence, the figures for `CN(C(=O)c1cnc(C(=O)C2CC2)n1C)c1cccnc1` [I-1-084] were 100%, 90% and 1.32.
In the case of `CN(C(=O)c1cnc(C2OCCCS2)n1C)c1cccnc1` (stereo not drawn) [I-1-022], the efficacy in % in data set [1] and in data set [2] was 100% each time. Moreover, in data set [3] (pH 7.8), the “logP [n]” value is 1.13.
In the case of `CCN(C)C(=O)c1ncc(C(=O)N(C)c2cccnc2)n1C` [I-1-053], the values for the efficacy in % in data set [1] and in data set [2] were 100% and 90%, respectively. Also, the “logP [n]” value in data set [3] (pH 7.8) is 0.87.
`CCONC(=O)c1ncc(C(=O)N(C)c2cccnc2)n1C` [I-1-078]: the efficacy in % in data set [2] is 90%. Also, the “logP [n]” value in data set [3] (pH 7.8) is given as 0.67.
On to `CCN(C)C(=O)c1ncc(C(=O)N(CC)c2cccnc2)n1C` [I-1-068], for which the efficacy in % in data set [1] is given as 90%; in data set [2], 100%. For the same compound, in data set [3] (pH 7.8), the “logP [n]” value came out at 1.12.
For the compound `CO/N=C/c1ncc(C(=O)N(C)c2cccnc2)n1C` [I-1-001], the efficacy in % in data set [1] is 100%; in data set [2] it was 90%. For the same compound, in data set [3] (pH 7.8), the “logP [n]” value is on record as 1.1.
On to `CN(C(=O)c1cnc(C(=O)NCC2CC2)n1C)c1cccnc1` [I-1-063], for which the efficacy in % in data set [1] is recorded as 100%. In addition, the “logP [n]” value in data set [3] (pH 7.8) is listed as 1.39.
Taken in the same sequence, the figures for `COC(=O)CNC(=O)c1ncc(C(=O)N(C)c2cccnc2)n1C` [I-1-077] were 90% and 0.93.
Turning to `CC(C)C(=O)c1ncc(C(=O)N(C)c2cccnc2)n1C` [I-1-082, 2-Isobutyryl-N,1-dimethyl-N-(pyridin-3-yl)-1H-imidazole-5-carboxamide], the pest or weed control at 500 g/ha in data set [2] (Myzus persicae, foliar, read-out: efficacy in %) worked out at 100%. Moreover, in data set [3] (setting [5]), the chromatographic logP amounted to 1.55.
`CN(C(=O)c1cnc(C(=O)NCCO)n1C)c1cccnc1` [I-1-089]: in data set [3] (pH 7.8), the “logP [n]” value stood at 0.45.
Take `CN(C(=O)c1cnc(C(=O)NS(=O)(=O)C2CC2)n1C)c1cccnc1` [I-1-088]: the “logP [n]” value in data set [3] (pH 7.8) is recorded as 0.72.
